Source: US8785470B2, “Heterocyclic compounds and uses thereof” (Infinity Pharmaceuticals, Inc., priority 2011, dated 2014)
Read-outs that look alike come from different tables or passages of the source.

Tests used:
Balb/c splenic B cells = test: B cell activation and proliferation assay; type: cell-based; details: Mus musculus, Greater than 1 μM to 10 μM, read-out: B cell proliferation EC50
Method in brief: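 Balb/c splenic B cells were isolated by Ficoll gradient and magnetic separation, plated at 50.000 cells/well in RPMI/10% FBS, and pre-incubated with compound for 30 min at 37° C (0.2% DMSO). Cells were stimulated for 72 h with a cocktail of 10 μg/ml LPS or 5 μg/ml anti-mouse IgM F(ab′)2 plus 2 ng/ml IL4. Alamar Blue fluorescence (560Ex/590Em) after 5 h gave IC50 or EC50.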

PI3Kδ = biological target: T1, PI3Kδ (Homo sapiens, UniProt O00329); test: PI3-Kinase HTRF assay, PI3Kδ; type: biochemical; details: bins Greater than 10 μM and Greater than 1 μM to 10 μM; 10 μM ATP, PIP2 at 10 μM
T1 construct: purchased Millipore Corporation 14-604-K
T1 sequence (O00329 whole entry): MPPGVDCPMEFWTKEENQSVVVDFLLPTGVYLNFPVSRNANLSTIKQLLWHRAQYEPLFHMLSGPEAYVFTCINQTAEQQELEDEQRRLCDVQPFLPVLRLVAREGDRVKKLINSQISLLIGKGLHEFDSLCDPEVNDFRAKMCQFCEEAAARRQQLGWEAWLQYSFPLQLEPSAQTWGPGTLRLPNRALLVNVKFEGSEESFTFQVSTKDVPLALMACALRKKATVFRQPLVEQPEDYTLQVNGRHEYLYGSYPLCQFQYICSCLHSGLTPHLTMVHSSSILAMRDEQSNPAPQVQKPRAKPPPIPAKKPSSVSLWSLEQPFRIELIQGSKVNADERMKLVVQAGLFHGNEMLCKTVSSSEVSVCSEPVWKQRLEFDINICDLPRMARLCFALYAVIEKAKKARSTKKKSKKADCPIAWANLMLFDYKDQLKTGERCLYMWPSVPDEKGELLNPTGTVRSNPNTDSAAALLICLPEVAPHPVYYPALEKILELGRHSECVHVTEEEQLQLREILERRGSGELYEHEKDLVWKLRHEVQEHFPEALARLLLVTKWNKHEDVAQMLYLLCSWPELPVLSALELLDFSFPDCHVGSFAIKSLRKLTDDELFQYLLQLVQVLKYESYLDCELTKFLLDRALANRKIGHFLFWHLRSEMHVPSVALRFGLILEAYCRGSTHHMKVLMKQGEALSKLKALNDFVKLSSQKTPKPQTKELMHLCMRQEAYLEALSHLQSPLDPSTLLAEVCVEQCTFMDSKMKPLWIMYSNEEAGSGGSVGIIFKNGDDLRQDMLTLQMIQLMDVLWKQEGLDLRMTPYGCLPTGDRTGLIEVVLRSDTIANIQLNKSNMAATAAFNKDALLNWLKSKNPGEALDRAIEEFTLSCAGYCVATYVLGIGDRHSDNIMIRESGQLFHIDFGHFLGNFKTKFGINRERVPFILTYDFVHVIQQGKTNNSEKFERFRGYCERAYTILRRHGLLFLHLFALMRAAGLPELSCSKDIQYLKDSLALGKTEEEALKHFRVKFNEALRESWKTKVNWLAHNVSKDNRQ
T1 sequence (P27986 whole entry partner): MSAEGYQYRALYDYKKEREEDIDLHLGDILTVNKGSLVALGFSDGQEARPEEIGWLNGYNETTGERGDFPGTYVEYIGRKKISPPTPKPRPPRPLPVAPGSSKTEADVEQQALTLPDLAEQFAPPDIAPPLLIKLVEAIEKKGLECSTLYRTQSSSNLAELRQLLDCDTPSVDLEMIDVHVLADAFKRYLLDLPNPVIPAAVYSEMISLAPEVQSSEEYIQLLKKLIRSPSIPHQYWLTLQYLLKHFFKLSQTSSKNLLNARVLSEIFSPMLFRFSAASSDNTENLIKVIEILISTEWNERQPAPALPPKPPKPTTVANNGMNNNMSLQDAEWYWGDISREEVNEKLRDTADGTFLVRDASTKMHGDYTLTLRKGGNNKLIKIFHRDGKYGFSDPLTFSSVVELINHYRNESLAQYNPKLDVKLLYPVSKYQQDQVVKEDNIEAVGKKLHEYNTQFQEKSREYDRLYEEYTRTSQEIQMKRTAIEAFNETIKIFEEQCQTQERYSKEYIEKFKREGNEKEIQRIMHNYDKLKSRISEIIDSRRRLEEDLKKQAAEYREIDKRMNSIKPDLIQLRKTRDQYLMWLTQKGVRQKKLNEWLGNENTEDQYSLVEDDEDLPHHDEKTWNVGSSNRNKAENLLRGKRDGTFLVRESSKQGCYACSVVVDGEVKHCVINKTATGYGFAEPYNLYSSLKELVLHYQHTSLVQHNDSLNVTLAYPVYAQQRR
Excerpt: A PI3-Kinase HTRF® assay kit (cat No. 33-016) purchased from Millipore Corporation was used to screen compounds provided herein. This assay used specific, high affinity binding of the GRPI pleckstrin homology (PH) domain to PIP3, the product of a Class 1A or 1B PI3 Kinase acting on its physiological substrate PIP2. During the detection phase of the assay, a complex was generated between the GST-tagged PH domain and biotinylated short chain PIP3. The biotinylated PIP3 and the GST-tagged PH domain recruited fluorophores (Streptavidin-Allophycocyanin and Europium-labeled anti-GST respectively) to form the fluorescence resonance energy transfer (FRET) architecture, generating a stable time-resolved FRET signal. The FRET complex was disrupted in a competitive manner by non-biotinylated PIP3, a product formed in the PI3 Kinase assay.
PI3 Kinase α, β, γ and δ activity was assayed using the PI3 Kinase HTRF® assay kit (catalogue No. 33-016) purchased from Millipore Corporation. Purified recombinant PI3Kα (catalogue No. 14-602-K), PI3Kβ (catalogue No. 14-603-K), PI3Kγ (catalogue No. 14-558-K) and PI3Kδ (catalogue No. 14-604-K) were obtained from Millipore Corporation. Purified recombinant PI3K enzyme was used to catalyze the phosphorylation of phosphatidylinositol 4,5-bisphosphate (PIP2 at 10 μM) to phosphatidylinositol 3,4,5-trisphosphate (PIP3) in the presence of 10 μM ATP. The assay was carried out in 384-well format and detected using a Perkin Elmer EnVision Xcite Multilabel Reader. Emission ratios were converted into percent inhibitions and imported into GraphPad Prism software. The concentration necessary to achieve inhibition of enzyme activity by 50% (IC50) was calculated using concentrations ranging from 20 μM to 0.1 nM (12-point curve). IC50 values were determined using a nonlinear regression model available in GraphPad Prism 5. […]

[1] = tested on: phospho-AKT in RAW 264.7 cells (PI3Kγ); test: PI3Kγ selective assay, phospho-AKT in RAW 264.7 cells; type: cell-based; details: Mus musculus, RAW264.7, stimulated with C5a, read-out: IC50 for phospho-AKT, RAW 264.7 cell model
Excerpt: A compound's ability in selectively inhibiting PI3Kγ can be assessed using RAW264.7 macrophages. Briefly, serum-starved PAW264.7 cells are stimulated with a known GPCR agonist C5a. (See, e.g., Camps et al., Nature Medicine (2005) 11(9): 936-943). Cells can be treated with test compounds prior to, simultaneously with, or subsequent to the stimulation by C5a. RAW 264.7 cells respond to the complement component fragment C5a through activation of the C5a receptor, and the C5a receptor activates macrophages and induces cell migration. Test compounds' ability to inhibit C5a-mediated AKT phosphorylation is indicative of selective inhibition of PI3Kγ. Thus, by monitoring the reduction of phospho-AKT in stimulated RAW 264.7 cells (using for example, phospho-AKT antibodies), a compound's potential efficacy in selectively inhibiting PI3Kγ can be assessed.

PI3Kβ = biological target: T2, PI3Kβ (Homo sapiens, UniProt P42338); test: PI3-Kinase HTRF assay, PI3Kβ; type: biochemical; details: bins Greater than 10 μM and Greater than 1 μM to 10 μM; 10 μM ATP, PIP2 at 10 μM
T2 construct: purchased Millipore Corporation 14-603-K
T2 sequence (P42338 whole entry): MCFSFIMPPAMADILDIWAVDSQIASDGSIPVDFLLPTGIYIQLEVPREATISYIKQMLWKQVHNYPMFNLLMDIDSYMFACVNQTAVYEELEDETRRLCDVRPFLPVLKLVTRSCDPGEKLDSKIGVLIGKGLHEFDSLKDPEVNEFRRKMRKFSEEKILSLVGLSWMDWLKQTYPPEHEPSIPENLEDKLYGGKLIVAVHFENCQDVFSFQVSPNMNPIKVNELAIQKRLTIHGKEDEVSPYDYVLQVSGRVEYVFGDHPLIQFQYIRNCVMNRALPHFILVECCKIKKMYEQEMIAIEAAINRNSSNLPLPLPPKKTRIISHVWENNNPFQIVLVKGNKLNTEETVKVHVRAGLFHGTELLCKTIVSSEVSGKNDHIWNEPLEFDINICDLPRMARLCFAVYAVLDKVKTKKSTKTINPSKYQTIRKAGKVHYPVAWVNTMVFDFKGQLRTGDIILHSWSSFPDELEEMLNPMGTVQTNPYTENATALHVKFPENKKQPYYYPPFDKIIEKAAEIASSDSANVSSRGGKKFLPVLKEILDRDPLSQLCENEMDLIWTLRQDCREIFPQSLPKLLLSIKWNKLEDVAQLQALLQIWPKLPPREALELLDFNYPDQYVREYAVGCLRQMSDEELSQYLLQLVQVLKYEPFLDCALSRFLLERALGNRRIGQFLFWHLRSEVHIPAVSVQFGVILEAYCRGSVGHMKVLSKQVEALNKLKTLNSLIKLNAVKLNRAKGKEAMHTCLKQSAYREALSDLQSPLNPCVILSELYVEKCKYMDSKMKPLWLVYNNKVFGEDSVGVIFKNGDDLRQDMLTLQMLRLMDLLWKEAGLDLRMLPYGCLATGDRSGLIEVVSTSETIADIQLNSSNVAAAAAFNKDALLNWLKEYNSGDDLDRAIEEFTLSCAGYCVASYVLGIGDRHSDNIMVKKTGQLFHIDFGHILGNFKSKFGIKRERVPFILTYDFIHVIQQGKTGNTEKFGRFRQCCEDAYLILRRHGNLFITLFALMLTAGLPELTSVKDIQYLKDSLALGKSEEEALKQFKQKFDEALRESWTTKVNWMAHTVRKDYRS
T2 sequence (P27986 whole entry partner): as the sequence (P27986 whole entry partner) above
Method in brief: (§1)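 Purified recombinant human PI3Kα, β, γ or δ (0.25-0.3 μg/ml) preincubated 15 min at room temperature with compound (2% DMSO) and 10 μM PIP2, then reacted 1 h with 10 μM ATP. PIP3 product detected by competitive HTRF (GST-PH domain/biotin-PIP3); IC50 from 12-point curves, 20 μM to 0.1 nM, by nonlinear regression.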

[2] = tested on: phospho-AKT in RAJI cells (PI3Kδ); test: PI3Kδ selective assay, phospho-AKT in RAJI cells; type: cell-based; details: RAJI cells stimulated with anti-human IgM; read-out: IC50 for phospho-AKT, RAJI cell model
Excerpt: A compound's ability in selectively inhibiting PI3Kδ can be assessed using RAJI cells, i.e., B lymphocyte cells derived from lymphoma patients. Briefly, serum-starved RAJI cells are stimulated with anti-human IgM, thereby causing signaling through the B-cell receptors, as described in, for example, He et al., Leukemia Research (2009) 33: 798-802. B-cell receptor signaling is important for the activation, differentiation, and survival of B cells and certain B-cell derived cancers. Reduction of phospho-AKT is indicative of compounds that may inhibit B-cell proliferation and function in certain diseases. By monitoring the reduction of phospho-AKT in stimulated RAJI cells (using for example, phospho-AKT antibodies), a compound's potential efficacy in selectively inhibiting PI3Kδ can be assessed.

PI3Kα = biological target: T3, PI3Kα (Homo sapiens, UniProt P42336); test: PI3-Kinase HTRF assay, PI3Kα; type: biochemical; details: bins Greater than 10 μM and Greater than 1 μM to 10 μM; 10 μM ATP, PIP2 at 10 μM; read-out: IC50 P13Kα
T3 construct: purchased Millipore Corporation 14-602-K
T3 sequence (P42336 whole entry): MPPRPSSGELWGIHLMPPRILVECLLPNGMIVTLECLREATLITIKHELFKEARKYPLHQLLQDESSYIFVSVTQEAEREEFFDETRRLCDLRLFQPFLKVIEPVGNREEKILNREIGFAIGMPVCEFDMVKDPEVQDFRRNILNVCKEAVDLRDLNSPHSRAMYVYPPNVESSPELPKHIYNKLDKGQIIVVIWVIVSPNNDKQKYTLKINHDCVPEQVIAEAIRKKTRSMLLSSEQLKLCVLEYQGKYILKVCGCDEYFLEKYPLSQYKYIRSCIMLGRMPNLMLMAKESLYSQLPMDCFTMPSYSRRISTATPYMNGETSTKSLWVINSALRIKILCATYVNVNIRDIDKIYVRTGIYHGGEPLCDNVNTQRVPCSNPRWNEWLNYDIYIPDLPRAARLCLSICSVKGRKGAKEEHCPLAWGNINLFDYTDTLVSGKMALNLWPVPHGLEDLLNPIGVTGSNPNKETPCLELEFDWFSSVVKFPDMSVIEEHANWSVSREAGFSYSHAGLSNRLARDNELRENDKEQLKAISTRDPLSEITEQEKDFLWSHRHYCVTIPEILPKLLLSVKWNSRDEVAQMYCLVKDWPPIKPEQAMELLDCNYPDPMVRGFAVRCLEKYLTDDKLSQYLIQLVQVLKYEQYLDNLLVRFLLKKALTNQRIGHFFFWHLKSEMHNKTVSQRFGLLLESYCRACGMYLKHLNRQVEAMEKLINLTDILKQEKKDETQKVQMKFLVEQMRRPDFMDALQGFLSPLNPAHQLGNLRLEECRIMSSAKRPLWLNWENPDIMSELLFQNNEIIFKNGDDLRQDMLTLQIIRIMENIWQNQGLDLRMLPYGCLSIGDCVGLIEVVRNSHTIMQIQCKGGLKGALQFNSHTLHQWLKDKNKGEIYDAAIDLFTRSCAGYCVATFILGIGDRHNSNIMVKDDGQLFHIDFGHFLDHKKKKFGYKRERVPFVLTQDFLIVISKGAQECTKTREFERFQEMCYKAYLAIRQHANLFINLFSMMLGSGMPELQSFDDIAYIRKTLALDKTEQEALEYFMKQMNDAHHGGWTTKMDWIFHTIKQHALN
T3 sequence (P27986 whole entry partner): as the sequence (P27986 whole entry partner) above
Method in brief: as §1

[3] = ranges less than 100 nM and between 100 nM and 1 μM (given as 100-1000)

| Structure (SMILES) | EC50 (Balb/c splenic B cells) [µM] | IC50 (PI3Kδ) [µM] | IC50 [1, 3] [µM] | IC50 (PI3Kβ) [µM] | IC50 [2] [µM] | IC50 (PI3Kα) [µM] | IC50 ([1]; range between 1 μM and 10 μM) [µM] |
| --- | --- | --- | --- | --- | --- | --- | --- |
| C[C@H](Nc1nc(N)ncc1-c1ccccc1)c1cc2cccc(Cl)c2c(=O)n1-c1ccccc1 [Compound 82, (S)-3-(1-(2-amino-5-phenylpyrimidin-4-ylamino)ethyl)-8-chloro-2-phenylisoquinolin-1(2H)-one] | 1 to 10 | 1 to 10 | – | – | – | – | – |
| C[C@H](Nc1nc(N)ncc1S(C)(=O)=O)c1cc2cccc(Cl)c2c(=O)n1-c1ccccc1 [Compound 85, (S)-3-(1-(2-amino-5-(methylsulfonyl)pyrimidin-4-ylamino)ethyl)-8-chloro-2-phenylisoquinolin-1(2H)-one] | – | 1 to 10 | – | – | – | – | – |
| C[C@H](Nc1nc(N)ncc1C#N)c1cc2cccc(Cl)c2c(=O)n1C1CC1 [Compound 104] | – | 1 to 10 | 0.1 to 1 | 1 to 10 | < 0.1 | – | – |
| COc1cccc2cc([C@H](C)Nc3nc(N)ncc3C#N)n(-c3ccccc3)c(=O)c12 [Compound 148] | – | 1 to 10 | – | – | – | – | – |
| COc1cc(-c2cccc3cc([C@H](C)Nc4nc(N)ncc4C(=O)N4CCC4)n(-c4ccccc4)c(=O)c23)ccn1 [Compound 154] | – | 1 to 10 | – | – | – | – | – |
| CCN(C)C(=O)c1cnc(N)nc1N[C@@H](C)c1cc2cccc(-c3ccnc(OC)c3)c2c(=O)n1-c1ccccc1 [Compound 155] | – | 1 to 10 | – | – | – | – | – |
| C[C@H](Nc1nc(N)ncc1C#N)c1cc2cccc(-c3cncc(NS(C)(=O)=O)c3)c2c(=O)n1-c1ccccc1 [Compound 191] | – | 1 to 10 | – | 1 to 10 | < 0.1 | 1 to 10 | 1 to 10 |
| C[C@H](Nc1nc(N)ncc1C#N)c1cc2cccc(Cl)c2c(=O)n1-c1ccc(C#N)cc1 [Compound 220] | – | 1 to 10 | – | 1 to 10 | – | – | – |
| COc1cnc(-c2cccc3cc([C@H](C)Nc4nc(N)ncc4C#N)n(-c4ccccc4)c(=O)c23)nc1 [Compound 228] | – | 1 to 10 | – | – | – | – | – |
| N#Cc1cnc(N)nc1NCc1cc2cccc(Cl)c2c(=O)n1-c1ccccc1 [Compound 241] | – | – | < 0.1 | 1 to 10 | < 0.1 | 1 to 10 | – |
| C[C@H](Nc1nc(N)ncc1C#N)c1cc2cccc(Cl)c2c(=O)n1-c1ccc(F)c(F)c1 [Compound 270] | – | 1 to 10 | < 0.1 | 1 to 10 | < 0.1 | – | – |
| C[C@H](Nc1nc(N)ncc1C#N)c1cc2cccc(Cl)c2c(=O)n1-c1c(F)cccc1F [Compound 279] | – | 1 to 10 | < 0.1 | 1 to 10 | < 0.1 | – | – |
| COc1cccc(-n2c([C@H](C)Nc3nc(N)ncc3C#N)cc3cccc(Cl)c3c2=O)c1 [Compound 288] | – | – | < 0.1 | 1 to 10 | < 0.1 | – | – |
| COc1cc(-n2c([C@H](C)Nc3nc(N)ncc3C#N)cc3cccc(Cl)c3c2=O)ccc1F [Compound 291] | – | 1 to 10 | < 0.1 | 1 to 10 | < 0.1 | – | – |
| CC(C)n1c([C@H](C)Nc2ncnc(N)c2C#N)cc2cccc(Cl)c2c1=O [Compound 329] | – | – | 0.1 to 1 | 1 to 10 | < 0.1 | 1 to 10 | – |
| C[C@H](Nc1nc(N)ncc1C#N)c1cc2cccc(-c3ccc(=O)n(C)c3)c2c(=O)n1-c1ccon1 [Compound 338] | – | 1 to 10 | – | 1 to 10 | < 0.1 | 1 to 10 | 1 to 10 |
| COc1ncc(-c2cnc(N)nc2N[C@@H](C)c2cc3cccc(Cl)c3c(=O)n2-c2ccccc2)s1 [Compound 382] | – | – | < 0.1 | 1 to 10 | < 0.1 | – | – |
| CCOc1nc(-c2cnc(N)nc2N[C@@H](C)c2cc3cccc(-c4cnc(OC)nc4)c3c(=O)n2-c2ccccc2)cs1 [Compound 396] | – | – | 0.1 to 1 | 1 to 10 | < 0.1 | 1 to 10 | – |
| C[C@H](Nc1nc(N)ncc1-c1cccc(S(C)(=O)=O)c1)c1cc2cccc(Cl)c2c(=O)n1-c1ccccc1 [Compound 397] | – | – | < 0.1 | 1 to 10 | < 0.1 | 1 to 10 | – |
| C[C@H](Nc1nc(N)ncc1-c1cccc(NS(C)(=O)=O)c1)c1cc2cccc(Cl)c2c(=O)n1-c1ccccc1 [Compound 399] | – | – | < 0.1 | 1 to 10 | < 0.1 | 1 to 10 | – |
| C[C@H](Nc1nc(N)ncc1-c1cncc(S(C)(=O)=O)c1)c1cc2cccc(Cl)c2c(=O)n1-c1ccccc1 [Compound 401] | – | 1 to 10 | 0.1 to 1 | 1 to 10 | < 0.1 | 1 to 10 | – |
| C[C@H](Nc1nc(N)ncc1-c1ccc(S(C)(=O)=O)nc1)c1cc2cccc(Cl)c2c(=O)n1-c1ccccc1 [Compound 402] | – | 1 to 10 | – | 1 to 10 | < 0.1 | – | 1 to 10 |
| C[C@H](Nc1nc(N)ncc1-c1cnc(S(C)(=O)=O)s1)c1cc2cccc(Cl)c2c(=O)n1-c1ccccc1 [Compound 403] | – | – | < 0.1 | 1 to 10 | < 0.1 | – | – |
| C[C@H](Nc1nc(N)ncc1-c1cccc(N(C)S(C)(=O)=O)c1)c1cc2cccc(Cl)c2c(=O)n1-c1ccccc1 [Compound 408] | – | – | < 0.1 | 1 to 10 | < 0.1 | 1 to 10 | – |
| Cc1ccc(NS(C)(=O)=O)cc1-c1cnc(N)nc1N[C@@H](C)c1cc2cccc(Cl)c2c(=O)n1-c1ccccc1 [Compound 412] | – | – | < 0.1 | 1 to 10 | < 0.1 | – | – |
| C[C@H](Nc1nc(N)ncc1-c1cccc(S(=O)(=O)C2CC2)c1)c1cc2cccc(Cl)c2c(=O)n1-c1ccccc1 [Compound 417] | – | – | < 0.1 | 1 to 10 | < 0.1 | 1 to 10 | – |
| CC(C)C(=O)c1cnc(N)nc1N[C@@H](C)c1cc2cccc(Cl)c2c(=O)n1-c1ccccc1 [Compound 424] | – | – | 0.1 to 1 | – | < 0.1 | 1 to 10 | – |
| C[C@H](Nc1nc(N)ncc1-c1cccc(S(C)(=O)=O)c1)c1cc2cccc(C(F)(F)F)c2c(=O)n1-c1ccccc1 [Compound 428] | – | – | < 0.1 | 1 to 10 | < 0.1 | 1 to 10 | – |
| C[C@H](Nc1cc(Cl)ncc1C#N)c1cc2cccc(Cl)c2c(=O)n1-c1ccccc1 [Compound 429] | – | 1 to 10 | – | – | – | – | – |
| C[C@H](Nc1nc(N)ncc1C(=O)N1CCC1)c1cc2cccc(Cl)c2c(=O)n1-c1ccccc1 [Compound 433] | – | 1 to 10 | – | – | – | – | – |
